Where only a bound is given, the exact number is not on record here.

In assay [1] the target is T1, FLT3 (Homo sapiens, UniProt P36888).
T1 sequence (P36888 27-993): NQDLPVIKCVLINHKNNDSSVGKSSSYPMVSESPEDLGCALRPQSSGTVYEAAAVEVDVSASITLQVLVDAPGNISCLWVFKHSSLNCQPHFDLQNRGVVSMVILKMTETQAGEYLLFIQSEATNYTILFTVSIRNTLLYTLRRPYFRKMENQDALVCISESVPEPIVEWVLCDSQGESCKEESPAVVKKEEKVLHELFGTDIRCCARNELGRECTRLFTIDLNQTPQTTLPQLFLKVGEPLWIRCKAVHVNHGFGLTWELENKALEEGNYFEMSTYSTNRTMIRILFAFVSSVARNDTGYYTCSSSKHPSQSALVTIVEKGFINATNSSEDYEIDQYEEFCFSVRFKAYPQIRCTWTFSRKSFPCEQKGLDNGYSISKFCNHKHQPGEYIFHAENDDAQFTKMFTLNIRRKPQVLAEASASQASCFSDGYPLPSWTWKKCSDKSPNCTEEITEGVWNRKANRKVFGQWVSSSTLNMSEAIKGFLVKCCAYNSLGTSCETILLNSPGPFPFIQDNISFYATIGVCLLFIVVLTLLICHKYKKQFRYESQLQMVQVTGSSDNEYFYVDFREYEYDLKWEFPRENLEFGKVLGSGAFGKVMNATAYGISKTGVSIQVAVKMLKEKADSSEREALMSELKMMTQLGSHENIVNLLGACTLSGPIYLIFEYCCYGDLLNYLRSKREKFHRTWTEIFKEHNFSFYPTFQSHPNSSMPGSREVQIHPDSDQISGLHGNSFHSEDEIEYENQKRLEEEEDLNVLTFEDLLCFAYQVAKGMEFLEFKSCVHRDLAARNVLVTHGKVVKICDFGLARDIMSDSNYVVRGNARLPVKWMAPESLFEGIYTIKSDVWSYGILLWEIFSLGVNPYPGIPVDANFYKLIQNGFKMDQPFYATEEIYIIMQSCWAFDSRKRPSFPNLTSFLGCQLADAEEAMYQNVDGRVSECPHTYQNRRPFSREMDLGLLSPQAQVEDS
Kind of assay: FLT3 Enzymatic Assay. As to conditions: HTRF kinase assay, 1 mM ATP. The format is biochemical. The protocol: (§1) The kinase assays were carried out at room temperature in assay buffer (HEPES 50 mM, pH 7.0, NaN3 0.02%, BSA 0.01%, Orthovanadate 0.1 mM, DTT 1 mM, MgCl2 10 mM) in a final volume of 10 μL. Testing compounds were prepared by serial dilution in DMSO and transferred to the plate wells by ECHO liquid handler (Labcyte) with 0.5% DMSO in the final assay. […]. Reactions were initiated by the addition of 5 μL ATP in assay buffer. The final 10 μL kinase reaction consists of 0.011 nM FLT3, 1 mM ATP, 500 nM TK Substrate-biotin and SEB reagent 62.5 nM in assay buffer. […] The plates were then sealed and centrifuged at 1800 rpm for 2 minutes. After 60 minutes incubation at room temperature, the product activity was determined by measuring the fluorescence at 620 nm and 665 nm on Pherastar microplate reader (BMG Labtech). A ratio is calculated (665/620 nm) for each well. Wells with DMSO only were served as the positive controls and wells containing no ATP were used as negative controls. IC50 determination was performed by fitting the curve of percent control activity versus the log of the compound concentration using the GraphPad Prism 7.0 software.
(In TR-FRET formats the signal depends on donor and acceptor labels being close together.)

Assay [2] deals with FLT3. In words: FLT3 Enzymatic Assay. The format is biochemical. The conditions noted are these: ratio FLT3 IC50 / JH2 V617F binding IC50. The protocol:
as §1

Assay [3] concerns the target T2, pseudo-kinase domain (JH2) of human V617F mutant JAK2 (Homo sapiens, UniProt O60674, F794H/V617F/W659A/W777A).
T2 construct: pseudo-kinase domain (JH2, amino-acids 536-812 with 3 surface mutations W659A, W777A, F794H); His (C); purchased BPS Bioscience 79498; host or cells: baculovirus expression system
Kind of assay: JAK2 LanthaScreen JH2-V617F Binding Assay. As to conditions: 50 nM JAK2-JH2 tracer, 1 hour at 25° C., read-out: JH2 V617F Bind IC50. Here is the method:
JAK2 JH2-V617F binding assay utilizes pseudo-kinase domain (JH2, amino-acids 536-812 with 3 surface mutations W659A, W777A, F794H) of human V617F mutant JAK2 expressed as C-terminal His-Avi-tagged, biotinylated protein in a baculovirus expression system (BPS Bioscience, Catalog #79498). The assay was conducted in black 384-well polystyrene plates in a final reaction volume of 20 μL. JAK2 JH2-V617F (0.26 nM) was incubated with compounds (100 nL serially diluted in DMSO) in the presence of 50 nM Fluorescent JAK2-JH2 Tracer (MedChem Express Catalog #HY-102055) and 0.25 nM Streptavidin-Tb cryptate (Cisbio Part #610SATLB) in assay buffer (50 mM Tris, pH=7.5, 10 mM MgCl2, 0.01% Brij-35, 0.1% BSA, 1 mM EGTA, 5% Glycerol and 5 mM DTT). Non-specific binding was accessed in the presence of 2 mM ATP. After incubation for 1 hour at 25° C., LanthaScreen signals were read on a PHERAstar FS plate reader (BMG LABTECH). Data was analyzed with IDBS XLfit and GraphPad Prism 5.0 software using a four parameter dose response curve to determine IC50 for each compound.

For assay [4], the target named is T3, catalytic domain (JH1) of human JAK2 (Homo sapiens, UniProt O60674).
T3 construct: catalytic domain (JH1, amino acids 826-1132) of human JAK2; FLAG (N); purchased Carna Biosciences 08-445-20N; host or cells: baculovirus expression system
T3 sequence (O60674 826-1132): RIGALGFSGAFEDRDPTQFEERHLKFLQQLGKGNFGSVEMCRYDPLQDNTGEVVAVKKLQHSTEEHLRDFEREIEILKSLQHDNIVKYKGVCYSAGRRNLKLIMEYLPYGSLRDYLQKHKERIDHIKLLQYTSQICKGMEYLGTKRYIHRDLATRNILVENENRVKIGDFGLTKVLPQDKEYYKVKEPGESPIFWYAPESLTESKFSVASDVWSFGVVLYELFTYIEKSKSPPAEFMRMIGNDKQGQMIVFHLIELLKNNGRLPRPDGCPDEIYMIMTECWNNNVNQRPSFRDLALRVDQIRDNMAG
In words: JAK2 LanthaScreen JH1 Binding Assay. As to conditions: 50 nM JAK2-JH1 tracer, 2 hours at 25° C., read-out: JH1 Bind IC50. The protocol:
JAK2 JH1 binding assay utilizes catalytic domain (JH1, amino acids 826-1132) of human JAK2 expressed as N-terminal FLAG-tagged, biotinylated protein in a baculovirus expression system (Carna Biosciences, Product #08-445-20N). The assay was conducted in black 384-well polystyrene plates in a final reaction volume of 20 μL. JAK2 JH1 (1.5 nM) was incubated with compounds (100 nL serially diluted in DMSO) in the presence of 50 nM fluorescent JAK2-JH1 tracer and 0.5 nM Streptavidin-Tb cryptate (Cisbio Part #610SATLB) in assay buffer (50 mM Tris, pH=7.5, 10 mM MgCl2, 0.01% Brij-35, 0.1% BSA, 1 mM EGTA, 5% Glycerol and 5 mM DTT). Non-specific binding was accessed in the presence of 2 mM ATP. After incubation for 2 hours at 25° C., LanthaScreen signals were read on a PHERAstar FS plate reader (BMG LABTECH). Data was analyzed with IDBS XLfit and GraphPad Prism 5.0 software using a four parameter dose response curve to determine IC50 for each compound.

T2 sequence (O60674 536-812 V617F/W659A/W777A/F794H): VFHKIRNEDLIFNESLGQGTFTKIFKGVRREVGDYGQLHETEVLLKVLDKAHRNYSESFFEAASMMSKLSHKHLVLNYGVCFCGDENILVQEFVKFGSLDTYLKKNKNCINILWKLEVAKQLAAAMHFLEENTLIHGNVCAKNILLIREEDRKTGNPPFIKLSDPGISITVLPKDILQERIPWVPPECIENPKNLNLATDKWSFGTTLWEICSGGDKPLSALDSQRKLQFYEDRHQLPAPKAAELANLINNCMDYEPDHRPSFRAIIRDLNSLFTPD

The term IC50 denotes the midpoint of a concentration-inhibition curve. With `COc1ccc(-c2c(-c3cn(C)nc3OC)[nH]c3ncc4c(c23)n([C@H]2CC[C@@](C)(NC(=O)C3CC3)CC2)c(=O)n4C)cc1` [Example 1, N-((1s,4s)-4-(7-(3-Methoxy-1-methyl-1H-pyrazol-4-yl)-8-(4-methoxyphenyl)-3-methyl-2-oxo-3,6-dihydroimidazo[4,5-d]pyrrolo[2,3-b]pyridin-1(2H)-yl)-1-methylcyclohexyl)cyclopropanecarboxamide], the IC50 against FLT3 [1] is over 2500 nM; in assay [3], at most 10 nM; in assay [4], over 1000 nM. In the assay on FLT3 [2], the “Selectivity FLT3/JH2 V617F” value is on record as “***** (***** refers to selectivity of >5000-fold to ≤12500-fold)”.
Taken in the same sequence, the figures for `[2H]C([2H])([2H])n1ncc2cc(-c3c(-c4cn(C)nc4OC)[nH]c4ncc5c(c34)n([C@H]3CC[C@@](C)(NC(=O)C4CC4)CC3)c(=O)n5C)ccc21` [Example 2, N-((1s,4s)-4-(7-(3-Methoxy-1-methyl-1H-pyrazol-4-yl)-3-methyl-8-(1-(methyl-d3)-1H-indazol-5-yl)-2-oxo-3,6-dihydroimidazo[4,5-d]pyrrolo[2,3-b]pyridin-1(2H)-yl)-1-methylcyclohexyl)cyclopropanecarboxamide] were 1250 to 2500 nM, at most 10 nM, over 1000 nM and “****** (****** refers to selectivity of >12500-fold)”.
For `[2H]C([2H])([2H])n1cc(-c2[nH]c3ncc4c(c3c2-c2ccc(OC)cc2)n([C@H]2CC[C@@](C)(NC(=O)C3CC3)CC2)c(=O)n4C)c(F)n1` [Example 3, N-((1s,4s)-4-(7-(3-fluoro-1-(methyl-d3)-1H-pyrazol-4-yl)-8-(4-methoxyphenyl)-3-methyl-2-oxo-3,6-dihydroimidazo[4,5-d]pyrrolo[2,3-b]pyridin-1(2H)-yl)-1-methylcyclohexyl)cyclopropanecarboxamide], in that order: 250 to 1250 nM, at most 10 nM, over 1000 nM and “** (** refers to selectivity of >500-fold to ≤1500-fold)”.
For `[2H]C([2H])([2H])n1cc(-c2[nH]c3ncc4c(c3c2-c2ccc3c(cnn3C([2H])([2H])[2H])c2)n([C@H]2CC[C@@](C)(NC(=O)C3CC3)CC2)c(=O)n4C)c(F)n1` [Example 4, N-((1s,4s)-4-(7-(3-fluoro-1-(methyl-d3)-1H-pyrazol-4-yl)-3-methyl-8-(1-(methyl-d3)-1H-indazol-5-yl)-2-oxo-3,6-dihydroimidazo[4,5-d]pyrrolo[2,3-b]pyridin-1(2H)-yl)-1-methylcyclohexyl)cyclopropanecarboxamide], in that order: 250 to 1250 nM, at most 10 nM, over 1000 nM and “*** (*** refers to selectivity of >1500-fold to ≤1750-fold)”.
Regarding `[2H]C([2H])([2H])n1ncc2cc(-c3c(-c4cn(CC)nc4F)[nH]c4ncc5c(c34)n([C@H]3CC[C@@](C)(NC(=O)C4CC4)CC3)c(=O)n5C)ccc21` [Example 5, N-((1s,4s)-4-(7-(1-Ethyl-3-fluoro-1H-pyrazol-4-yl)-3-methyl-8-(1-(methyl-d3)-1H-indazol-5-yl)-2-oxo-3,6-dihydroimidazo[4,5-d]pyrrolo[2,3-b]pyridin-1(2H)-yl)-1-methylcyclohexyl)cyclopropanecarboxamide], the IC50 was 25 to 250 nM on FLT3 [1], at most 10 nM in assay [3] and over 1000 nM in assay [4]. In addition, the “Selectivity FLT3/JH2 V617F” value in the assay with FLT3 [2] is recorded as “** (** refers to selectivity of >500-fold to ≤1500-fold)”.
For `[2H]C([2H])([2H])n1cc(-c2[nH]c3ncc4c(c3c2-c2ccc(OC)cc2)n([C@H]2CC[C@@](C)(NC(=O)[C@H]3C[C@H]3F)CC2)c(=O)n4C([2H])([2H])[2H])c(F)n1` [Example 6, (1R,2R)-2-Fluoro-N-((1s,4S)-4-(7-(3-fluoro-1-(methyl-d3)-1H-pyrazol-4-yl)-8-(4-methoxyphenyl)-3-(methyl-d3)-2-oxo-3,6-dihydroimidazo[4,5-d]pyrrolo[2,3-b]pyridin-1(2H)-yl)-1-methylcyclohexyl)cyclopropane-1-carboxamide], in that order: 25 to 250 nM, at most 10 nM, over 1000 nM and “** (** refers to selectivity of >500-fold to ≤1500-fold)”.

These data come from patent US20240190876A1, “Tricyclic Urea Compounds As JAK2 V617F Inhibitors” (Incyte Corporation, priority 2022, published 2024).
